Source: patent US20250213474A1, “COMPOSITIONS AND METHODS FOR METAL CONTAINING FORMULATIONS CAPABLE OF MODULATING IMMUNE RESPONSE” (The Regents of the University of Michigan, priority 2021, published 2025)

Columns and labels:
CT26 colon cancer cells = assay: CT26 tumor model, intratumoral cdAMP(ps)2 formulations; assay type: in vivo, Balb/c mice
Description: When tumor size reach ˜60 mm^3, 2 doses of 25 ug/dose cdAMP(ps)2 were administrated intra-tumorally on days 10 and 15. To evaluate antigen-specific immune responses, PBMCs were collected for tetramer staining on day 17 and ELISPOT analysis with AH1 antigen peptides on day 22. […] Although CDN-Zn seemed to better inhibit tumor growth, compared with CDN and CDNs@CaP/PEI-PEG, there was no statistical difference among them. For the survival of mice after treatment, median survival time for untreated, CDN, CDN-Zn and CDNs@CaP/PEI-PEG group was 23 days, 42 days, 64 days and unreached, respectively (FIG. 4B).
All animals were cared for following federal, state, and local guidelines. All work performed on animals was in accordance with and approved by the University Committee on Use and Care of Animals (UCUCA) at University of Michigan, Ann Arbor. Female Balb/c mice of age 6-8 weeks (Jackson Laboratories) were inoculated with 1×10^5 CT26 colon cancer cells. When tumor size achieved ˜100 mm^3, 2 doses of 25 ug cdAMP(ps)2 in different formulations were administrated via intra-tumoral route on day 10 and day 15. Tumor size and survival were monitored every 2 or 3 days. Tumor size was calculated based on equation: volume=length×width^2×0.5. Animals were euthanized when the tumor reached 1.5 cm in diameter or when animals became moribund with severe weight loss or ulceration. At day 17, the percentages of tumor antigen-specific CD8α+ T cells among PBMC were analyzed using the tetramer staining assay as described previously with peptide-MHC tetramer ([…] AH1) (the NIH Tetramer Core Facility, Atlanta, GA). On day 22, ELISPOT assay was performed with PBMC from the treated mice as described previously.
All animals were cared for following federal, state, and local guidelines. All work performed on animals was in accordance with and approved by the University Committee on Use and Care of Animals (UCUCA) at University of Michigan, Ann Arbor. Female Balb/c mice of age 6-8 weeks (Jackson Laboratories) were inoculated with 1×10^5 CT26 colon cancer cells. When tumor size achieved ˜50 mm^3, indicated drugs or formulations were administrated via the indicated route. Tumor size and survival were monitored every 2 or 3 days. Tumor size was calculated based on equation: volume=length×width^2×0.5. Animals were euthanized when the tumor reached 1.5 cm in diameter or when animals became moribund with severe weight loss or un-healing ulceration. At day 17, the percentages of tumor antigen-specific CD8α+ T cells among PBMC were analyzed using the tetramer staining assay as described previously with peptide-MHC tetramer ([…] AH1) (the NIH Tetramer Core Facility, Atlanta, GA). […]
We also evaluated a subset of the formulations mentioned above in tumor-bearing mice. […]

[1] = tested on: cGAS-STING-Type I IFN pathway; assay: Inhibition of DNA/lipofectamine-induced IFN-I response in THP 1 dual-KI-hSTING WT(R232) reporter cells; assay type: cell-based, human; conditions: DNA/lipofectamine complex challenging, ISRE induced luminescence
Text: (§1) FIGS. 18A-18F: Chelating metal ions to inhibit cGAS-STING-Type I IFN pathway. (FIG. 18A) Molecular structure of representative chelators that could inhibit cGAS-STING-Type I IFN pathway. (FIGS. 18B-18C) Dose-inhibition curves of the IFN-I response (FIG. 18B) and NF-kB inflammation response (FIG. 18C) by the indicated compounds in DNA/lipofectamine 2000 (ThermoFisher, 11668027) treated THP 1 dual-KI-hSTING^WT(R232) reporter cells (Invivogen, thpd-r232). (FIG. 18D) Cellular viability of FIGS. 18B-18C. (FIG. 18E) Dose-inhibition curves of the IFN-I response by the indicated compounds in DNA/lipofectamine 2000 (ThermoFisher, 11668027) treated THP 1-ISG hSTING^HAQ reporter cells (Invivogen, thp-isg). […]
(§2) Given the interesting function of metal ions on modulating innate immune response in our finding, we further evaluated whether chelating metal ions could inhibit the according innate immune pathways, which may be used to treat autoimmune diseases, such as Systemic lupus erythematosus, Aicardi-Goutieres syndrome, Acute pancreatitis Age-dependent macular degeneration, Alcoholic liver disease, Liver fibrosis, Metastasis, Myocardial infarction, Nonalcoholic steatohepatitis (NASH), Parkinson's disease, Polyarthritis/fetal and neonatal anemia, Sepsis, inflammatory bowel disease, multiple sclerosis, etc. […] By a ISRE induced luminescence, we could read the degree of inhibition. […]

[2] = tested on: THP 1 dual-KI-hSTING^WT(R232) reporter cells; assay: Cellular viability of chelator-treated THP 1 dual-KI-hSTING WT(R232) reporter cells; assay type: cell-based, human
Text: as §1, §2

[3] = 2 doses of 25 ug/dose cdAMP(ps)2 intratumorally on days 10 and 15

Q: cdAMP(ps)2 [free CDN] was tested. Which “average tumor growth compared with the untreated group” value (CT26 colon cancer cells; [3]) did it give?
A: The value was “greatly delayed”.

Q: What about the median survival time (CT26 colon cancer cells; [3]) of the same compound?
A: Its median survival time is 42 days.

Q: What about the “AH1 antigen-specific T cell response (ELISPOT)” value (CT26 colon cancer cells; day 22, seven days after the 2nd dose) of the same compound?
A: The value was “significant AH1 antigen-specific T cell response”.

Q: What about the complete tumor regression (CT26 colon cancer cells; individual tumor growth curves, 5 mice per group) of the same compound?
A: The complete tumor regression was 2 out of 5.

Q: Which results are given for `O=C(OC[C@H]1O[C@@H](OC(=O)c2cc(O)c(O)c(OC(=O)c3cc(O)c(O)c(O)c3)c2)[C@H](OC(=O)c2cc(O)c(O)c(OC(=O)c3cc(O)c(O)c(O)c3)c2)[C@@H](OC(=O)c2cc(O)c(O)c(OC(=O)c3cc(O)c(O)c(O)c3)c2)[C@@H]1OC(=O)c1cc(O)c(O)c(OC(=O)c2cc(O)c(O)c(O)c2)c1)c1cc(O)c(O)c(OC(=O)c2cc(O)c(O)c(O)c2)c1` [tannin acid, Tannic acid]?
A: IC50 of DNA-induced Type I IFN response [1]: as low as nanomolar level; tolerability in in-vitro assay (cellular viability) [2]: well-tolerated

Q: Which “IC50 of DNA-induced Type I IFN response” value [1] does the source give for `O=C1O[C@H]2[C@@H]3OC(=O)c4cc(O)c(O)c(O)c4-c4c(O)c(O)c5oc(=O)c6c(c(O)c(O)c7oc(=O)c4c5c76)-c4c(cc(O)c(O)c4O)C(=O)OC[C@H]3OC(O)[C@@H]2OC(=O)c2cc(O)c(O)c(O)c2-c2c1cc(O)c(O)c2O` (mixture of isomers) [Punicalagin] here?
A: Its value is “as low as nanomolar level”.

Q: And the “tolerability in in-vitro assay (cellular viability)” value [2]?
A: The value was “well-tolerated”.
